{"source": "paper PMC5322872", "about": "“ALKBH7 Variant Related to Prostate Cancer Exhibits Altered Substrate Binding” (PLoS Computational Biology, 2017)", "target": "T1, ALKBH7 (Homo sapiens, UniProt Q9BT30)", "T1 sequence (Q9BT30 17-215)": "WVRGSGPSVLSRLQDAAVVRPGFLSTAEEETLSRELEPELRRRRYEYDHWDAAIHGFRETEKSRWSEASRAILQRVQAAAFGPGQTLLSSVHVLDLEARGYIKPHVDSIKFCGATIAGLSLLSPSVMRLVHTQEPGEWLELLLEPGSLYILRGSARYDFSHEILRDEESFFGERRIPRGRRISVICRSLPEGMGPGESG", "assay": "anaerobic difference UV-Vis spectroscopy (MLCT transition at […] nm)", "type": "binding", "conditions": "0.3 mM protein, 100 uM Fe(II), α-kg 2 mM in Fig 4 legend but 0.2 mM in Methods", "data": [{"smiles": "O=C(O)CCC(=O)C(=O)O", "note": "[α-kg]", "values": [{"measurement": "anaerobic difference UV-Vis spectroscopy (MLCT transition at 510 nm)", "result": "The spectrum of WT ALKBH7·Fe(II)·α-kg minus that of ALKBH7·α-kg revealed the typical weak MLCT transitions"}]}]}
